According to PubChem BioAssay AID248 (DTP/NCI, 2004):
Inconclusive results and toxic doses are left out. Rule as the data show it: active = T/C of 150% or more; inactive = T/C below 125%.

Test system: L1210 leukemia ip in BDF1 mice, survival T/C
Assay: NCI In Vivo Anticancer Drug Screen. Data for tumor model L1210 Leukemia (intraperitoneal) in B6D2F1 (BDF1) mice
Details: endpoint: mean survival time, higher = longer survival
Procedure, shortened: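 Ratio derived from survival: compound-dosed mice over vehicle-dosed mice, all bearing a transplantable tumor.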

[1] = dose: 100.0 mg/kg/injection, schedule: Q01DX001 (ip), vehicle: carboxymethylcellulose (CMC)
[2] = dose: 100.0 mg/kg/injection, schedule: Q01DX009 (ip), vehicle: saline with Tween-80
[3] = dose: 100.0 mg/kg/injection, schedule: Q04DX003 (ip), vehicle: saline with Tween-80
[4] = dose: 200.0 mg/kg/injection, schedule: Q01DX001 (ip), vehicle: carboxymethylcellulose (CMC)
[5] = dose: 200.0 mg/kg/injection, schedule: Q01DX009 (ip), vehicle: saline with Tween-80
[6] = dose: 400.0 mg/kg/injection, schedule: Q01DX001 (ip), vehicle: carboxymethylcellulose (CMC)
[7] = dose: 400.0 mg/kg/injection, schedule: Q01DX009 (ip), vehicle: saline with Tween-80
[8] = dose: 100.0 mg/kg/injection, schedule: Q04DX002 (ip), vehicle: gum acacia
[9] = dose: 200.0 mg/kg/injection, schedule: Q04DX002 (ip), vehicle: gum acacia
[10] = dose: 100.0 mg/kg/injection, schedule: Q04DX003 (ip), vehicle: saline
[11] = dose: 100.0 mg/kg/injection, schedule: Q01DX001 (ip), vehicle: saline
[12] = dose: 100.0 mg/kg/injection, schedule: Q04DX002 (ip), vehicle: saline
[13] = dose: 200.0 mg/kg/injection, schedule: Q01DX001 (ip), vehicle: saline
[14] = dose: 200.0 mg/kg/injection, schedule: Q04DX002 (ip), vehicle: saline
[15] = dose: 400.0 mg/kg/injection, schedule: Q01DX001 (ip), vehicle: saline

Measured: T/C

NC(Cc1cccs1)C(=O)O (stereo not given)
inactive: [1] 96 % of control | [2] 101 % of control | [3] 99 % of control | [4] 101 % of control | [5] 104 % of control | dose: 200.0 mg/kg/injection, schedule: Q04DX003 (ip), vehicle: saline with Tween-80 99 % of control | dose: 250.0 mg/kg/injection, schedule: Q01DX Z (ip), vehicle: carboxymethylcellulose (CMC) 89 % of control | [6] 101 % of control | [7] 97 % of control | dose: 400.0 mg/kg/injection, schedule: Q04DX003 (ip), vehicle: saline with Tween-80 96 % of control | dose: 1000.0 mg/kg/injection, schedule: Q01DX Z (ip), vehicle: carboxymethylcellulose (CMC) 92 % of control

c1ccc(C(c2ccccc2)C2CSC2)cc1
inactive: dose: 50.0 mg/kg/injection, schedule: Q04DX002 (ip), vehicle: gum acacia 93 % of control | [8] 100 % of control | [9] 93 % of control

CCC(C)C(C(=O)OC1CCN(CC)CC1)c1ccccc1 (stereo not given)
inactive: [10] 94 % of control

O=C(Nc1ccc([N+](=O)[O-])cc1)C(c1ccccc1)c1ccccc1
inactive: [8] 100 % of control | [9] 100 % of control | dose: 400.0 mg/kg/injection, schedule: Q04DX002 (ip), vehicle: gum acacia 93 % of control

O=C(O)C1(O)CCCCC1
inactive: [11] 104 % of control | dose: 100.0 mg/kg/injection, schedule: Q01DX009 (ip), vehicle: saline 100 % of control | [12] 104 % of control | [10] 98 % of control | [13] 110 % of control | [14] 93 % of control | dose: 200.0 mg/kg/injection, schedule: Q04DX003 (ip), vehicle: saline 113 % of control | [15] 110 % of control | dose: 400.0 mg/kg/injection, schedule: Q04DX003 (ip), vehicle: saline 101 % of control

COC(=O)C1CC2C(CCC3C(C)(C(=O)OC)CCCC23C)C(=O)C1(O)C(C)C (stereo not given)
inactive: [2] 95 % of control | [5] 90 % of control | [7] 91 % of control

Cc1cc2c(cc1C)C(=O)C(N1CCN(C)CC1)CCC2 (stereo not given)
inactive: [3] 101 % of control

Nc1nc2c(ncn2C2OC(CO)C(O)C2O)c(=O)n1N (stereo not given)
inactive: [11] 102 % of control | [13] 101 % of control | [15] 95 % of control

CC1(Br)C(=O)C(O)=C(Br)C1=O (stereo not given)
inactive: dose: 75.0 mg/kg/injection, schedule: Q01DX001 (ip), vehicle: saline 104 % of control | dose: 150.0 mg/kg/injection, schedule: Q01DX001 (ip), vehicle: saline 106 % of control

COC1(OC)C2CCC1C1OC12 (stereo not given)
inactive: [12] 107 % of control | [14] 97 % of control | dose: 400.0 mg/kg/injection, schedule: Q04DX002 (ip), vehicle: saline 97 % of control

Clc1ccc(N=Cc2ccc3c(c2)OCO3)c(Cl)c1
inactive: dose: 100.0 mg/kg/injection, schedule: Q01DX009 (ip), vehicle: Klucel (hydroxypropylcellulose) (HPC) 94 % of control | dose: 200.0 mg/kg/injection, schedule: Q01DX009 (ip), vehicle: Klucel (hydroxypropylcellulose) (HPC) 93 % of control | dose: 400.0 mg/kg/injection, schedule: Q01DX009 (ip), vehicle: Klucel (hydroxypropylcellulose) (HPC) 96 % of control

O=S(=O)(O)CS(=O)(=O)O
inactive: dose: 5.0 mg/kg/injection, schedule: Q01DX001 (ip), vehicle: saline 101 % of control | dose: 10.0 mg/kg/injection, schedule: Q01DX001 (ip), vehicle: saline 100 % of control | dose: 20.0 mg/kg/injection, schedule: Q01DX001 (ip), vehicle: saline 97 % of control | dose: 40.0 mg/kg/injection, schedule: Q01DX001 (ip), vehicle: saline 101 % of control

[Cl][Co][Cl].[NH-]CCN1CC1
inactive: [10] 90 % of control

CC(=O)Nc1cccc(OCc2cccc([N+](=O)[O-])c2)c1
inactive: [1] 97 % of control | [4] 92 % of control | [6] 108 % of control
